Activity calls are given as the source filed them. The rule behind the calls is not given here. Where a SMILES comes first, the peptide text is derived from it. The star is where a group is joined. Stearoyl = CCCCCCCCCCCCCCCCCC(=O)*
How the values were obtained:
[1] = biological target: Substance-P receptor (Homo sapiens) (UniProt P25103); test: Binding affinity to NK1R (unknown origin) expressed in HEK293 cells assessed as reduction in cell viability in presence of p53 plasmid at N/P ratio of 1 incubated for 96 hrs by MTT assay relative to control; assay type: cell-based
Sequence of Substance-P receptor (Homo sapiens) (P25103 whole entry): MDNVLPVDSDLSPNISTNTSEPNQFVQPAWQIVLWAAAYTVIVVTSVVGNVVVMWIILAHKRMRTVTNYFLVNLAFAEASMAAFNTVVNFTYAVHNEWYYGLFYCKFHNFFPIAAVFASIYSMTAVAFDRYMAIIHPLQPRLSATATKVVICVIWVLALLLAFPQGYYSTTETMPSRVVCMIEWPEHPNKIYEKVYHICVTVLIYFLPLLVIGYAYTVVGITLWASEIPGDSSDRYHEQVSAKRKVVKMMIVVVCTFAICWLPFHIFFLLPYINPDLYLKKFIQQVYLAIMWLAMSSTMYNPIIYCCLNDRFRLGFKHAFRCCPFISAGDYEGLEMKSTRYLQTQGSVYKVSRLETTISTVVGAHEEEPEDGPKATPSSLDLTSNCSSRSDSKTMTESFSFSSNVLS

[2] = test system: HEK293; test: Cytotoxicity against HEK293 cells assessed as reduction in cell viability incubated for 96 hrs by MTT assay; assay type: cell-based; conditions: Homo sapiens, HEK293, 96 h
[3] = Drug uptake in HEK293 cells at 1 uM incubated for 1 hr by flow cytometry analysis; assay type: ADME, cell-based; conditions: human, hek293, 1 h
[4] = Drug uptake in HEK293 cells at 1 uM incubated for 1 hr by confocal microscopy analysis; assay type: ADME, cell-based; conditions: human, hek293, 1 h
[5] = test system: HEK293; test: Activation of luciferase (unknown origin) expressed in HEK293 cells in presence of pGL3 plasmid incubated for 30 mins by luciferase reporter gene assay; assay type: cell-based
[6] = biological target: Substance-P receptor (Homo sapiens) (UniProt P25103); test: Binding affinity to NK1R (unknown origin) expressed in HEK293 cells assessed as reduction in cell viability in presence of p53 plasmid at N/P ratio of 2 incubated for 96 hrs by MTT assay relative to control; assay type: cell-based
[7] = biological target: Substance-P receptor (Homo sapiens) (UniProt P25103); test: Binding affinity to NK1R (unknown origin) expressed in HEK293 cells assessed as reduction in cell viability in presence of p53 plasmid at N/P ratio of 3 incubated for 96 hrs by MTT assay relative to control; assay type: cell-based
[8] = test system: HEK293; test: Cytotoxicity against HEK293 cells assessed as reduction in cell viability in presence of p53 plasmid at N/P ratio of 0.5 to 3 incubated for 96 hrs by MTT assay; assay type: cell-based; conditions: human, hek293, 96 h
[9] = biological target: Substance-P receptor (Homo sapiens) (UniProt P25103); test: Binding affinity to NK1R (unknown origin) expressed in HEK293 cells assessed as reduction in cell viability in presence of p53 plasmid at N/P ratio of 0.5 to 3 incubated for 96 hrs by MTT assay; assay type: cell-based

CCCCCCCCCCCCCCCCCC(=O)N[C@@H](CCCCN)C(=O)N[C@@H](Cc1c[nH]c2ccccc12)C(=O)N[C@@H](CCCCN)C(=O)N[C@@H](CC(C)C)C(=O)N[C@@H](CCC(=O)O)C(=O)N[C@@H](CCCCN)C(=O)N[C@@H](CCCCN)C(=O)N[C@H](C(=O)NCC(=O)N[C@@H](C)C(=O)N[C@H](C(=O)N[C@@H](CC(C)C)C(=O)N[C@H](C(=O)N[C@@H](CS)C(=O)N[C@H](C(=O)N[C@@H](CC(C)C)C(=O)N[C@@H](CCCNC(=N)N)C(=O)N1CCC[C@H]1C(=O)N[C@@H](CCCCN)C(=O)N1CCC[C@H]1C(=O)N[C@@H](CCC(N)=O)C(=O)N[C@@H](CCC(N)=O)C(=O)N[C@@H](Cc1ccccc1)C(=O)N[C@@H](Cc1ccccc1)C(=O)NCC(=O)N[C@@H](CC(C)C)C(=O)N[C@@H](CCSC)C(N)=O)C(C)C)[C@@H](C)CC)C(C)C)[C@@H](C)CC (Stearoyl-KWKLEKKIGAVLICVLRPKPQQFFGLM-NH2)
Activity [1]: 51.6%
EC50 [2]: 7.5 µM
Drug uptake [3]: Active
Drug uptake [4]: Active
Activity [5]: inactive
Activity [6]: 66.7%
Activity [7]: 70.2%
Activity [8]: Active
Activity [9]: Active
